Several values for one entry are separate records, joined by “and”; a condition that tells them apart may be missing. Equal entries are not always repeated. Entries after “also recorded” stand apart in the source; their conditions may differ.
What was measured:
[1] = biological target: T1, PAK4 Kinase domain (PAK4 KD) (Homo sapiens, UniProt O96013); assay: PAK4 kinase domain enzymatic assay (PK/LDH-coupled, Ki); assay type: biochemical; conditions: PAK4 Kinase Domain
T1 construct: Cloning, expression, and purification of recombinant PAK4 Kinase domain (PAK4 KD); His tag (pET28a(+)/pET24a(+), Ni-NTA purification) (N, cleaved yes); GST (pGST4.5, glutathione column) (N, cleaved yes); made in house; host or cells: E. coli BL21(DE3)
T1 sequence (O96013 321-572 limits assumed): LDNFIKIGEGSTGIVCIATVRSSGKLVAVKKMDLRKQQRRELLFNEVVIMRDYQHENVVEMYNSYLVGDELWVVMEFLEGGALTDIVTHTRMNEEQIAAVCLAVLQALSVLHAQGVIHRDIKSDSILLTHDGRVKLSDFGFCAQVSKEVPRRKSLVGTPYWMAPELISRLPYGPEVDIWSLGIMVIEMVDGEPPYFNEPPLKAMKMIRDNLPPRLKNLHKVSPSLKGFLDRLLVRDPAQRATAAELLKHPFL

[2] = biological target: T2, PAK4 kinase activity in whole cells (TR-293-KDG, modified HEK 293) (Homo sapiens, UniProt O96013); assay: PAK4 cellular assay: sandwich ELISA of PAK4-dependent phosphorylation of GEF-H1b in TR-293-KDG cells; assay type: cell-based; conditions: 3-hour exposure
T2 construct: engineered to overexpress both GEF-H1b and the kinase domain (KD) of PAK4; expressed in transfected cells; host or cells: TR-293-KDG (modified HEK 293, Trex system, Invitrogen)
T2 sequence (O96013 321-572 limits assumed): as above

[3] = test system: HCT116 human colorectal carcinoma tumor xenografts; assay: Tumor growth inhibition and tumor growth delay of HCT116 xenografts in athymic mice; assay type: in vivo; conditions: for Tumor growth inhibition (TGI) % TGImax d39 / Tumor growth delay T-C1250 mm3: oral gavage; for Tumor growth inhibition (TGI) % TGImax d39: day 39, vs vehicle; for Tumor growth delay T-C1250 mm3: evaluation size 1250 mm3
Experimental: Material and preparation: The HCT116 cell line was obtained from American Type Culture Collection (ATCC, Bethesda, Md.). Cells were grown as monolayers in McCoy's media each supplemented with 10% FBS (each from Life Technologies, Inc., Bethesda, Md.) and maintained at 37° C. in a humidified atmosphere at 5% CO2. Tumor cells for implantation into athymic mice were harvested near confluence by incubation with 0.05% Trypsin-EDTA. Cells were pelleted at 450×g for 5-10 minutes and the cell pellets were re-suspended in serum-free McCoy's medium supplemented with 50% matrigel. Tumor cells (1×10^6 cells/animal) were implanted s.c. into the hindflank region of each mouse on day 0 and allowed to grow to the designated size prior to the administration of compound for each experiment.
Tumor growth inhibition: Treatment was initiated when tumors were approximately 200 mm3 in size. Compound of Example 2 or vehicle (methyl cellulose, MC) was administered as an oral gavage daily or every other day at 10 mL/kg. Tumors were measured using Vernier calipers, and tumor volumes were calculated utilizing the formula length×width2×0.4. Tumor volume was measured on the indicated days, with the median tumor volume indicated for each group of 12 animals; median±SEM. At the end of the study, the maximum percent tumor growth inhibition was calculated as 100×(tumor volumefinal−tumor volumeinitial) for Compound 1f Example 2-treated group/(tumor volumefinal−tumor volumeinitial) for vehicle group on day 39 and tumor growth delay was calculated as median […] when median tumor volume reached 1250 mm^3.
Tumor growth delay: Treatment with Compound of Example 2 began on day 11 when tumors reached a volume of ˜200 mm^3 and continued for 28 days until the control tumors reached evaluation size (1250 mm^3). Tumor measurement continued until treated tumors reached evaluation size (1250 mm^3) in order to assess tumor growth delay. Compound of Example 2 was administered to tumor-bearing mice by oral gavage as a solution in MC in 10 mL/kg volume and compared with vehicle alone administered in the same volume.

Compound | Ki [1] [nM] | EC50 [2] [nM] | further results
CN(C)C[C@@H](OC(=O)N1Cc2c(NC(=O)c3ccc(F)cc3)n[nH]c2C1(C)C)c1ccccc1 [Example 2, (1S)-2-(dimethylamino)-1-phenylethyl 3-[(4-fluorobenzoyl)amino]-6,6-dimethyl-4,6-dihydropyrrolo[3,4-c]pyrazole-5(1H)-carboxylate] | 16.7 | 9.7 | Tumor growth inhibition (TGI) % TGImax d39 ([3]; 50 mg/kg QD): 50%; Tumor growth delay T-C1250 mm3 ([3]; 50 mg/kg QD): 12.2 days; Tumor growth inhibition (TGI) % TGImax d39 ([3]; 75 mg/Kg/QOD): 37% and 36.6%; Tumor growth delay T-C1250 mm3 ([3]; 75 mg/Kg/QOD): 9.8 days; in vivo tumor growth inhibition/delay (in words) ([3]; HCT116 xenografts in athymic mice, oral): showed in vivo tumor growth inhibition; also recorded: inhibited/delayed growth; general health and body weight of treated mice ([3]; throughout the 28 day treatment cycle, oral): generally appeared healthy and continued to gain weight
COC(C)(C)C(=O)Nc1n[nH]c2c1CN(C(=O)O[C@H](CN(C)C)c1ccccc1)C2(C)C [Example 116, (S)-2-(dimethylamino)-1-phenylethyl 3-(2-methoxy-2-methylpropanamido)-6,6-dimethylpyrrolo[3,4-c]pyrazole-5(1H,4H, 6H)-carboxylate] | 212 | 50 | 
COC[C@@H](CN(C)C)OC(=O)N1Cc2c(NC(=O)c3ccc(F)cc3)n[nH]c2C1(C)C [Example 77, (1R)-2-(dimethylamino)-1-(methoxymethyl)ethyl 3-[(4-fluorobenzoyl)amino]-6,6-dimethyl-4,6-dihydropyrrolo[3,4-c]pyrazole-5(1H)-carboxylate] | 345 | 167 | 
CC1(C)c2[nH]nc(NC(=O)c3cccs3)c2CN1C(=O)N[C@H]1C[C@@H]1c1ccccc1 (relative stereo) [Example 98, 6,6-dimethyl-N-[trans-2-phenylcyclopropyl]-3-[(2-thienylcarbonyl)amino]-4,6-dihydropyrrolo[3,4-c]pyrazole-5(1H)-carboxamide] | 19.5 | 1080 | 
CC1(C)c2[nH]nc(NC(=O)c3ccc(F)cc3)c2CN1C(=O)OC(CN1CCCC1)c1ccccc1 (stereo not shown) [Example 43, 1-phenyl-2-pyrrolidin-1-ylethyl 3-[(4-fluorobenzoyl)amino]-6,6-dimethyl-4,6-dihydropyrrolo[3,4-c]pyrazole-5(1H)-carboxylate] | 58.1 | 439 | 
CC1(C)c2[nH]nc(NC(=O)c3cc4ccccc4s3)c2CN1C(=O)N[C@H](CO)c1ccccc1 [Example 99, 3-[(1-benzothien-2-ylcarbonyl)amino]-N-[(1S)-2-hydroxy-1-phenylethyl]-6,6-dimethyl-4,6-dihydropyrrolo[3,4-c]pyrazole-5(1H)-carboxamide] | 67.9 | 423 | 
CN(C)CC(OC(=O)N1Cc2c(NC(=O)c3ccc(F)cc3)n[nH]c2C1(C)C)c1ccccc1F (stereo not shown) [Example 38, 2-(dimethylamino)-1-(2-fluorophenyl)ethyl 3-[(4-fluorobenzoyl)amino]-6,6-dimethyl-4,6-dihydropyrrolo[3,4-c]pyrazole-5(1H)-carboxylate] | 43.2 | 113 | 
C[C@@H](CN(C)C)OC(=O)N1Cc2c(NC(=O)c3ccccc3)n[nH]c2C1(C)C [Example 73, (1S)-2-(dimethylamino)-1-methylethyl 3-(benzoylamino)-6,6-dimethyl-4,6-dihydropyrrolo [3,4-c]pyrazole-5(1H)-carboxylate] | 354 | 200 | 
CN(C)CC(OC(=O)N1Cc2c(NC(=O)c3ccc(F)cc3F)n[nH]c2C1(C)C)c1ccccc1 (stereo not shown) [Example 23, 2-(dimethylamino)-1-phenylethyl 3-[(2,4-difluorobenzoyl)amino]-6,6-dimethyl-4,6-dihydropyrrolo[3,4-c]pyrazole-5(1H)-carboxylate] | 122 | 3.9 | 
CO[C@@H](C)C(=O)Nc1n[nH]c2c1CN(C(=O)O[C@H](CN(C)C)c1ccccc1)C2(C)C [Example 90, (S)-2-(dimethylamino)-1-phenylethyl 3-((S)-2-methoxypropanamido)-6,6-dimethylpyrrolo[3,4-c]pyrazole-5(1H,4H,6H)-carboxylate] | 251 | 4 | 
CN(C)C[C@@H](OC(=O)N1Cc2c(NC(=O)C3CCC3)n[nH]c2C1(C)C)c1ccccc1 [Example 11, (1S)-2-(dimethylamino)-1-phenylethyl 3-[(cyclobutylcarbonyl)amino]-6,6-dimethyl-4,6-dihydropyrrolo[3,4-c]pyrazole-5(1H)-carboxylate] | 101 | 15.7 | 

— patent US7884117B2, “Carbonylamino pyrrolopyrazoles, potent kinase inhibitors” (Pfizer Inc., priority 2005, dated 2011)
